According to the NIST ThermoML archive (doi:10.1021/je200352g):
± gives the expanded uncertainty stated by the source.

Details: 298 K; 101.33 kPa; Crystal; X-ray diffraction

mass density | Structure (SMILES)
1268 ± 2 kg/m3 | CCCCCCCCC[NH3+].O=P([O-])(O)O [1-nonylammonium dihydrogen phosphate]
1282 ± 2 kg/m3 | CCCCCCCC[NH3+].O=P([O-])(O)O [1-octanaminium dihydrogen phosphate]
